ChEMBL document CHEMBL3286240, “Inhibition of Enterococcus faecalis biofilm formation by highly active lactones and lactams analogues of rubrolides” (Eur J Med Chem, 2014)
≈ marks a conversion by molar mass, not a printed value.

tested on: Enterococcus faecalis; experiment: Antimicrobial activity against Enterococcus faecalis assessed as bacterial growth at 10.9 ug/ml after 20 hrs by microtiter plate assay; type: functional

Question: `COc1ccc(Cl)cc1C1=C(Br)C(=O)O/C1=C\c1ccccc1Br` was tested. Which Activity did it give?
Answer: The Activity was 33.2%.

Question: For `COc1cccc(/C=C2\OC(=O)C(Br)=C2c2cc(Cl)ccc2OC)c1`, which Activity is on record?
Answer: Its Activity is 9.2%.

Question: `COc1ccccc1C1=C(Br)C(=O)N(CC(C)C)C1(O)Cc1ccc(C(F)(F)F)cc1` (stereo not given) was tested. Which Activity did it give?
Answer: Its Activity is 22.7%.

Question: For `COc1ccc(Br)cc1C1=C(Br)C(=O)N(CC(C)C)C1(O)Cc1cccc(Cl)c1` (stereo not given), which Activity is on record?
Answer: Its Activity is 6.5%.

Question: `COc1ccc(Br)cc1C1=C(Br)C(=O)N(CC(C)C)C1(O)Cc1ccc(Br)cc1` (stereo not given) was tested. Which Activity did it give?
Answer: Its Activity is 10.4%.

Question: With `COc1ccc(C)cc1C1=C(Br)C(=O)N(CC(C)C)C1(O)Cc1cccc(Cl)c1` (stereo not given) as the compound, how does the Activity read?
Answer: Its Activity is 5.8%.

tested on: Enterococcus faecalis; experiment: Antimicrobial activity against Enterococcus faecalis assessed as bacterial growth at 2.73 ug/ml after 20 hrs by microtiter plate assay; type: functional

Question: `COc1ccc(Cl)cc1C1=C(Br)C(=O)O/C1=C\c1ccccc1Br` was tested. Which Activity did it give?
Answer: Its Activity is 23.8%.

Question: Which Activity does the source give for `COc1cccc(/C=C2\OC(=O)C(Br)=C2c2cc(Cl)ccc2OC)c1` here?
Answer: Its Activity is 11.8%.

Question: Which Activity does the source give for `COc1ccccc1C1=C(Br)C(=O)N(CC(C)C)C1(O)Cc1ccc(C(F)(F)F)cc1` (stereo not given) here?
Answer: Its Activity is 8.4%.

Question: `COc1ccc(Br)cc1C1=C(Br)C(=O)N(CC(C)C)C1(O)Cc1cccc(Cl)c1` (stereo not given) was tested. Which Activity did it give?
Answer: The Activity was -4.4%.

Question: With `COc1ccc(Br)cc1C1=C(Br)C(=O)N(CC(C)C)C1(O)Cc1ccc(Br)cc1` (stereo not given) as the compound, how does the Activity read?
Answer: Its Activity is 8.9%.

Question: For `COc1ccc(C)cc1C1=C(Br)C(=O)N(CC(C)C)C1(O)Cc1cccc(Cl)c1` (stereo not given), which Activity is on record?
Answer: Its Activity is 4.8%.

tested on: Enterococcus faecalis; experiment: Antimicrobial activity against Enterococcus faecalis assessed as bacterial growth at 0.17 ug/ml after 20 hrs by microtiter plate assay; type: functional

Question: `COc1ccc(Cl)cc1C1=C(Br)C(=O)O/C1=C\c1ccccc1Br` was tested. Which Activity did it give?
Answer: Its Activity is 0.8%.

Question: For `COc1cccc(/C=C2\OC(=O)C(Br)=C2c2cc(Cl)ccc2OC)c1`, which Activity is on record?
Answer: The Activity was -1.5%.

Question: How did the Activity turn out when `COc1ccccc1C1=C(Br)C(=O)N(CC(C)C)C1(O)Cc1ccc(C(F)(F)F)cc1` (stereo not given) was run?
Answer: Its Activity is 1.9%.

Question: How did the Activity turn out when `COc1ccc(Br)cc1C1=C(Br)C(=O)N(CC(C)C)C1(O)Cc1cccc(Cl)c1` (stereo not given) was run?
Answer: The Activity was 1.3%.

Question: How did the Activity turn out when `COc1ccc(Br)cc1C1=C(Br)C(=O)N(CC(C)C)C1(O)Cc1ccc(Br)cc1` (stereo not given) was run?
Answer: Its Activity is -8%.

Question: For `COc1ccc(C)cc1C1=C(Br)C(=O)N(CC(C)C)C1(O)Cc1cccc(Cl)c1` (stereo not given), which Activity is on record?
Answer: Its Activity is -2.5%.

tested on: Enterococcus faecalis; experiment: Antimicrobial activity against Enterococcus faecalis assessed as bacterial growth at 43.8 ug/ml after 20 hrs by microtiter plate assay; type: functional

Question: With `COc1ccc(Cl)cc1C1=C(Br)C(=O)O/C1=C\c1ccccc1Br` as the compound, how does the Activity read?
Answer: The Activity was 47%.

Question: With `COc1cccc(/C=C2\OC(=O)C(Br)=C2c2cc(Cl)ccc2OC)c1` as the compound, how does the Activity read?
Answer: Its Activity is 24.1%.

Question: For `COc1ccccc1C1=C(Br)C(=O)N(CC(C)C)C1(O)Cc1ccc(C(F)(F)F)cc1` (stereo not given), which Activity is on record?
Answer: Its Activity is -1.2%.

Question: Which Activity does the source give for `COc1ccc(Br)cc1C1=C(Br)C(=O)N(CC(C)C)C1(O)Cc1cccc(Cl)c1` (stereo not given) here?
Answer: Its Activity is 30.3%.

Question: With `COc1ccc(Br)cc1C1=C(Br)C(=O)N(CC(C)C)C1(O)Cc1ccc(Br)cc1` (stereo not given) as the compound, how does the Activity read?
Answer: The Activity was 28.1%.

Question: Which Activity does the source give for `COc1ccc(C)cc1C1=C(Br)C(=O)N(CC(C)C)C1(O)Cc1cccc(Cl)c1` (stereo not given) here?
Answer: The Activity was 36.8%.

tested on: Enterococcus faecalis; experiment: Antimicrobial activity against Enterococcus faecalis assessed as bacterial growth at 1.37 ug/ml after 20 hrs by microtiter plate assay; type: functional

Question: For `COc1ccc(Cl)cc1C1=C(Br)C(=O)O/C1=C\c1ccccc1Br`, which Activity is on record?
Answer: Its Activity is -0.8%.

Question: How did the Activity turn out when `COc1cccc(/C=C2\OC(=O)C(Br)=C2c2cc(Cl)ccc2OC)c1` was run?
Answer: The Activity was 0.3%.

Question: With `COc1ccccc1C1=C(Br)C(=O)N(CC(C)C)C1(O)Cc1ccc(C(F)(F)F)cc1` (stereo not given) as the compound, how does the Activity read?
Answer: Its Activity is 3.4%.

Question: How did the Activity turn out when `COc1ccc(Br)cc1C1=C(Br)C(=O)N(CC(C)C)C1(O)Cc1cccc(Cl)c1` (stereo not given) was run?
Answer: The Activity was 1.3%.

Question: `COc1ccc(Br)cc1C1=C(Br)C(=O)N(CC(C)C)C1(O)Cc1ccc(Br)cc1` (stereo not given) was tested. Which Activity did it give?
Answer: Its Activity is 3.2%.

Question: Which Activity does the source give for `COc1ccc(C)cc1C1=C(Br)C(=O)N(CC(C)C)C1(O)Cc1cccc(Cl)c1` (stereo not given) here?
Answer: The Activity was 2.1%.

tested on: Enterococcus faecalis; experiment: Antimicrobial activity against Enterococcus faecalis assessed as bacterial growth at 87.5 ug/ml after 20 hrs by microtiter plate assay; type: functional

Question: `COc1ccc(Cl)cc1C1=C(Br)C(=O)O/C1=C\c1ccccc1Br` was tested. Which Activity did it give?
Answer: The Activity was 68.7%.

Question: `COc1cccc(/C=C2\OC(=O)C(Br)=C2c2cc(Cl)ccc2OC)c1` was tested. Which Activity did it give?
Answer: The Activity was 40.5%.

Question: How did the Activity turn out when `COc1ccccc1C1=C(Br)C(=O)N(CC(C)C)C1(O)Cc1ccc(C(F)(F)F)cc1` (stereo not given) was run?
Answer: The Activity was -24.6%.

Question: With `COc1ccc(Br)cc1C1=C(Br)C(=O)N(CC(C)C)C1(O)Cc1cccc(Cl)c1` (stereo not given) as the compound, how does the Activity read?
Answer: Its Activity is 48.7%.

Question: With `COc1ccc(Br)cc1C1=C(Br)C(=O)N(CC(C)C)C1(O)Cc1ccc(Br)cc1` (stereo not given) as the compound, how does the Activity read?
Answer: Its Activity is 42.4%.

Question: Which Activity does the source give for `COc1ccc(C)cc1C1=C(Br)C(=O)N(CC(C)C)C1(O)Cc1cccc(Cl)c1` (stereo not given) here?
Answer: Its Activity is 53.1%.

tested on: Enterococcus faecalis; experiment: Antimicrobial activity against Enterococcus faecalis assessed as inhibition of biofilm formation after 20 hrs by crystal violet staining analysis; type: functional, organism-based

Question: With `COc1ccc(Cl)cc1C1=C(Br)C(=O)O/C1=C\c1ccccc1Br` as the compound, how does the IC50 read?
Answer: The IC50 was over 87.5 µg/mL.

Question: How did the IC50 turn out when `COc1cccc(/C=C2\OC(=O)C(Br)=C2c2cc(Cl)ccc2OC)c1` was run?
Answer: The IC50 was 53.1 µg/mL (≈ 126 µM).

Question: `COc1ccc(Br)cc1C1=C(Br)C(=O)N(CC(C)C)C1(O)Cc1cccc(Cl)c1` (stereo not given) was tested. Which IC50 did it give?
Answer: The IC50 was over 87.5 µg/mL.

Question: `COc1ccc(Br)cc1C1=C(Br)C(=O)N(CC(C)C)C1(O)Cc1ccc(Br)cc1` (stereo not given) was tested. Which IC50 did it give?
Answer: The IC50 was 33.4 µg/mL (≈ 56.8 µM).

Question: Which IC50 does the source give for `COc1ccc(C)cc1C1=C(Br)C(=O)N(CC(C)C)C1(O)Cc1cccc(Cl)c1` (stereo not given) here?
Answer: The IC50 was over 87.5 µg/mL.

tested on: Enterococcus faecalis; experiment: Antimicrobial activity against Enterococcus faecalis assessed as bacterial growth at 21.9 ug/ml after 20 hrs by microtiter plate assay; type: functional

Question: `COc1ccc(Cl)cc1C1=C(Br)C(=O)O/C1=C\c1ccccc1Br` was tested. Which Activity did it give?
Answer: Its Activity is 47.5%.

Question: Which Activity does the source give for `COc1cccc(/C=C2\OC(=O)C(Br)=C2c2cc(Cl)ccc2OC)c1` here?
Answer: The Activity was 19.7%.

Question: Which Activity does the source give for `COc1ccccc1C1=C(Br)C(=O)N(CC(C)C)C1(O)Cc1ccc(C(F)(F)F)cc1` (stereo not given) here?
Answer: The Activity was -7%.

Question: How did the Activity turn out when `COc1ccc(Br)cc1C1=C(Br)C(=O)N(CC(C)C)C1(O)Cc1cccc(Cl)c1` (stereo not given) was run?
Answer: The Activity was 9.3%.

Question: How did the Activity turn out when `COc1ccc(Br)cc1C1=C(Br)C(=O)N(CC(C)C)C1(O)Cc1ccc(Br)cc1` (stereo not given) was run?
Answer: Its Activity is 15.8%.

Question: How did the Activity turn out when `COc1ccc(C)cc1C1=C(Br)C(=O)N(CC(C)C)C1(O)Cc1cccc(Cl)c1` (stereo not given) was run?
Answer: Its Activity is 24.9%.

tested on: Enterococcus faecalis; experiment: Antimicrobial activity against Enterococcus faecalis assessed as bacterial growth at 0.34 ug/ml after 20 hrs by microtiter plate assay; type: functional

Question: How did the Activity turn out when `COc1ccc(Cl)cc1C1=C(Br)C(=O)O/C1=C\c1ccccc1Br` was run?
Answer: The Activity was -4.7%.

Question: How did the Activity turn out when `COc1cccc(/C=C2\OC(=O)C(Br)=C2c2cc(Cl)ccc2OC)c1` was run?
Answer: The Activity was -4.1%.

Question: With `COc1ccccc1C1=C(Br)C(=O)N(CC(C)C)C1(O)Cc1ccc(C(F)(F)F)cc1` (stereo not given) as the compound, how does the Activity read?
Answer: Its Activity is 1.7%.

Question: How did the Activity turn out when `COc1ccc(Br)cc1C1=C(Br)C(=O)N(CC(C)C)C1(O)Cc1cccc(Cl)c1` (stereo not given) was run?
Answer: The Activity was -4.7%.

Question: `COc1ccc(Br)cc1C1=C(Br)C(=O)N(CC(C)C)C1(O)Cc1ccc(Br)cc1` (stereo not given) was tested. Which Activity did it give?
Answer: The Activity was 10%.

Question: How did the Activity turn out when `COc1ccc(C)cc1C1=C(Br)C(=O)N(CC(C)C)C1(O)Cc1cccc(Cl)c1` (stereo not given) was run?
Answer: The Activity was 0.7%.

tested on: Enterococcus faecalis; experiment: Antimicrobial activity against Enterococcus faecalis assessed as bacterial growth at 5.5 ug/ml after 20 hrs by microtiter plate assay; type: functional

Question: For `COc1ccc(Cl)cc1C1=C(Br)C(=O)O/C1=C\c1ccccc1Br`, which Activity is on record?
Answer: The Activity was 36.3%.

Question: With `COc1cccc(/C=C2\OC(=O)C(Br)=C2c2cc(Cl)ccc2OC)c1` as the compound, how does the Activity read?
Answer: The Activity was 9.7%.

Question: With `COc1ccccc1C1=C(Br)C(=O)N(CC(C)C)C1(O)Cc1ccc(C(F)(F)F)cc1` (stereo not given) as the compound, how does the Activity read?
Answer: The Activity was 18.1%.

Question: For `COc1ccc(Br)cc1C1=C(Br)C(=O)N(CC(C)C)C1(O)Cc1cccc(Cl)c1` (stereo not given), which Activity is on record?
Answer: Its Activity is -2.1%.

Question: With `COc1ccc(Br)cc1C1=C(Br)C(=O)N(CC(C)C)C1(O)Cc1ccc(Br)cc1` (stereo not given) as the compound, how does the Activity read?
Answer: Its Activity is 8.4%.

Question: Which Activity does the source give for `COc1ccc(C)cc1C1=C(Br)C(=O)N(CC(C)C)C1(O)Cc1cccc(Cl)c1` (stereo not given) here?
Answer: Its Activity is 4.2%.

tested on: Enterococcus faecalis; experiment: Antimicrobial activity against Enterococcus faecalis assessed as bacterial growth at 0.68 ug/ml after 20 hrs by microtiter plate assay; type: functional

Question: For `COc1ccc(Cl)cc1C1=C(Br)C(=O)O/C1=C\c1ccccc1Br`, which Activity is on record?
Answer: Its Activity is -3.4%.

Question: How did the Activity turn out when `COc1cccc(/C=C2\OC(=O)C(Br)=C2c2cc(Cl)ccc2OC)c1` was run?
Answer: Its Activity is -5.6%.

Question: How did the Activity turn out when `COc1ccccc1C1=C(Br)C(=O)N(CC(C)C)C1(O)Cc1ccc(C(F)(F)F)cc1` (stereo not given) was run?
Answer: Its Activity is 11.3%.

Question: How did the Activity turn out when `COc1ccc(Br)cc1C1=C(Br)C(=O)N(CC(C)C)C1(O)Cc1cccc(Cl)c1` (stereo not given) was run?
Answer: Its Activity is -0.8%.

Question: Which Activity does the source give for `COc1ccc(Br)cc1C1=C(Br)C(=O)N(CC(C)C)C1(O)Cc1ccc(Br)cc1` (stereo not given) here?
Answer: Its Activity is 6.3%.

Question: How did the Activity turn out when `COc1ccc(C)cc1C1=C(Br)C(=O)N(CC(C)C)C1(O)Cc1cccc(Cl)c1` (stereo not given) was run?
Answer: The Activity was 3.3%.
